Turning to `N#Cc1cn(-c2ccc(Cl)c(Cl)c2)c(=O)[nH]c1=O`, the melting point (usually the temperature of the solid-liquid transition) was 206 to 208 °C.

`CC=CCOc1ccc(C(=O)C=Cc2cccc(OC)c2)c(O)c1` had a melting point of 97 to 100 °C.

`O=C(Nc1nccs1)c1nc(-c2cccc3ccccc23)[nH]c1-c1ccc(F)cc1`: the melting point lay in the range of 218 to 220 °C.

For `Brc1ccc(-c2cn([C@H]3CN4CCC3CC4)nn2)cc1`, the melting point amounted to 158 °C.

Regarding `O=C(O)c1cccc(C[C@@H]2COc3ccc(OCc4ccccn4)cc3[C@@H]2O)c1` (relative stereo), the melting point is 196 to 198 °C.

The compound `CC(=O)SCCc1cccc(N)n1` had a melting point of 55 to 59 °C.

As to `COc1ccccc1N1CCN(CCCOc2ccc(-c3cn4ccccc4n3)cc2)CC1`, the melting point lay in the range of 149 to 150 °C.

For the compound `COc1cc(CCCC2SC(=O)NC2=O)cc(OC)c1OCc1coc(/C=C/c2ccccc2)n1` (stereo not given), the melting point lay within 163 to 164 °C.

In turn, `Cn1nc(C(F)(F)F)nc1Oc1cc(On2c(=O)cc(C(F)(F)F)n(C)c2=O)c(F)cc1Cl` displayed a melting point of 138 to 140 °C.

Regarding `O=C(C(c1ccc(Cl)cc1)c1c(Cl)cc(-n2ncc(=O)[nH]c2=O)cc1Cl)N1CCCC1` (stereo not given), the melting point turned out to be 154 °C.

As to `COc1cc2c(Nc3ccc(Sc4ccccn4)c(Cl)c3)c(C#N)cnc2cc1N1CCC(N2CCCC2)CC1`, the melting point is 203 to 205 °C.

Compound `Cn1cc(C(=O)O)cc1C(=O)c1ccccc1` had a melting point of 210 to 212 °C.

Compound `CSCCOc1ccc(/C=C(\C)c2ccc3c(c2)C(C)(C)CCC3(C)C)cc1` showed a melting point of 94 to 96 °C.

As to `CONC(=O)C(C)c1ccc2cc(OCc3ccc4ccccc4n3)ccc2c1` (stereo not given), the melting point lay in the range of 162 to 164 °C.

The compound `IC12C3C4C5C3C1C5C42` (stereo not given) showed a melting point of 32 to 33 °C.

Turning to `CC(=O)NC[C@H]1CN(c2ccc(N3CCC4(CC3)C[C@@H]4C#N)c(F)c2)C(=O)O1`, the melting point is 156 °C.

`CC(=O)CCC(=O)N1CCN(c2c(F)cc(N3CC(CNC(C)=O)OC3=O)cc2F)CC1` (stereo not given) registered a melting point of 52 to 56 °C.

The compound `CNc1c(NCCSCc2ccc(CN(C)C)o2)c(=O)c1=O` had a melting point of 176 to 178 °C.

On to `O=C(c1ccc([N+](=O)[O-])cc1)N1CCOCC1`, for which the melting point lay within 90 to 91 °C.

With `N#CC(=Cc1cc(O)c(O)c(Br)c1)C(=O)Nc1cccc(Cl)c1`, the melting point was 266 to 270 °C.

In turn, `O=C(Nc1ccccc1)c1cccc(Nc2cc(Cl)cc(Cl)c2)c1` showed a melting point of 164 to 165 °C.

In the case of `CCCCCCCCCCCCOCC(C=CC(=O)N(C)C)(C=CC(=O)N(C)C)COCCCCCCCCCCCC`, the melting point was 52 to 54 °C.

The compound `COc1ccc(CCOc2ccc(NC(=O)c3cc(F)cc(N4CCCCC4)c3)c3ccccc23)cc1OC` had a melting point of 158 to 160 °C.

`CN(C)C(=O)c1cc(=O)c2ccsc2s1` returned a melting point of 126 °C.

As to `CCCCCCCCCCCCCCCCC[C@@H](C[C@@H]1OC(=O)[C@H]1CC)OC(=O)[C@H](CC(C)C)NC(=O)OCc1ccccc1`, the melting point lay in the range of 44 to 47 °C.

The compound `OCCn1c(NC2CCNCC2)nc2cccnc21` registered a melting point of 157 °C.

As to `CS(=O)CCN1C(=O)CN=C(c2ccccc2)c2cc(Cl)ccc21` (stereo not given), the melting point was 166 to 167 °C.

With `O=c1[nH]c2cc(C(F)(F)F)c([N+](=O)[O-])c(Cl)c2[nH]c1=O`, the melting point was 343 to 347 °C.

`Nc1cc(Nc2cccc(Cl)c2)ncn1` came in with a melting point of 171 to 172 °C.

The compound `COc1cc2c(sc3nc(C)c(CO)n32)c(OC)c1OC` gave a melting point of 196 °C.

`O=c1cc(Cl)sn1-c1ccc(Cl)cc1` registered a melting point of 117 to 119 °C.

The compound `CN=C(NS(=O)(=O)N1CCCCC1)C1=NN(c2ccc(Cl)cc2)C(c2ccccc2)C1` (stereo not given) yielded a melting point of 141 to 144 °C.

Turning to `CC(=O)C(O)C1OC(n2cc(F)c(=O)[nH]c2=O)CC1(O)C(C)=O` (stereo not given), the melting point lay in the range of 148 to 149 °C.

Turning to `C=C(C)C(=O)OCc1c(Br)c(Br)c(Br)c(Br)c1COC(=O)C(=C)C`, the melting point lay in the range of 64 to 66 °C.

Consider `CC(=O)C(=CN(C)C)c1ccc(N2CCC(c3ccccc3)CC2)cc1`, for which the melting point fell in the range of 93 to 100 °C.

Source of the values: a melting point compilation (Tetko et al.; mined from patent text by program, amines drawn as free bases though some values may be those of a salt).
